Consider five compounds from PubChem BioAssay (NCI).

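A five-concentration, 48-hour dose response in 96-well plates underlies each endpoint, interpolated linearly between surrounding concentrations. Abbreviation: GI50, concentration required for 50% inhibition of growth. Definition used: TGI = concentration required for complete inhibition of growth.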

Holding throughout (assay): inhibition of tumour cell growth, NCI panel, 48 h
Experiment [1] concerns HCC-2998 colon.
Experiment [2] has as its system SR leukemia.
Experiment [3] deals with SK-OV-3 ovarian.
Experiment [4] concerns NCI-H226 lung.
Experiment [5] has as its system SNB-19 CNS.
Experiment [6] has as its system HL-60(TB) leukemia.
The test system of experiment [7] is U251 CNS.
For experiment [8], the system named is SK-MEL-28 melanoma.
Experiment [9] deals with SK-MEL-5 melanoma.
The test system of experiment [10] is NCI-H460 lung.

`Cc1nc2[nH]ncn2c(=O)c1CCO`: the TGI in [1], in experiment [2], in [3], in [4], in [5] and in experiment [6] was > 10 µM each time. For the same compound, the TGI in [7] is > 10 µM; in experiment [8], 7.74 µM; in experiment [9], > 10 µM; in experiment [10], > 10 µM.

In the case of `COc1ccc(C2C3CCCC(C3=O)C(c3ccc(OC)cc3)N2N=O)cc1` (stereo unspecified), the TGI is 59.6 µM in experiment [1]; > 87.6 µM in experiment [3]; 61.6 µM in experiment [4]; > 91.2 µM in [5]; > 64 µM in experiment [6]; > 100 µM in experiment [7]. In addition, the TGI in [8] is > 100 µM; in [9], 32.4 µM; in [10], 42.2 µM.

With `O=C(NCCNc1nccc(-c2c(-c3cccc(O)c3)nc3sccn23)n1)c1ccccc1`, the GI50 in [1] was 13.8 µM; in experiment [2] it was 5.68 µM; in experiment [4], 7.95 µM; in experiment [5], 29.4 µM; in experiment [6] it was 10.2 µM; in [7], 17.9 µM. For the same compound, the GI50 is 0.336 µM in experiment [8], 4.15 µM in [9] and 10.4 µM in experiment [10]. In addition, the TGI is 31.2 µM in experiment [1]; 50 µM in [2]; 45.3 µM in [4]; > 100 µM in experiment [5]; 29.6 µM in experiment [6]; > 100 µM in experiment [7]. The values for the TGI in experiment [8], in experiment [9] and in experiment [10] were 99.1 µM, 17.5 µM and 27.5 µM, respectively.

Consider `COc1ccc(N2C(=O)C3c4[nH]c5ccc(F)cc5c4C4CCC(C(C)(C)C)CC4C3C2=O)cc1` (stereo unspecified), for which the TGI in [1], in experiment [2], in experiment [3], in experiment [4], in experiment [5] and in experiment [6] was > 10 µM in each case. Moreover, the TGI in [7], in experiment [8], in [9] and in [10] was > 10 µM in each case.

Consider `CCOC(=O)Cc1cnc(NC(NC(=O)CC)(C(F)(F)F)C(F)(F)F)s1`, for which the TGI in [1], in experiment [2], in [3], in [4], in experiment [5] and in experiment [6] was > 100 µM throughout. The TGI in experiment [7], in [8] and in [10] was > 100 µM in each case.
